Source: patent publication US20090298834A1, “4-(AMINOMETHYL)CYCLOHEXANAMINE DERIVATIVES AS CALCIUM CHANNEL BLOCKERS” (priority 2008, published 2009)

How the values were obtained:
[1] = system: T-type over L-type channels; conditions: cited from earlier work
[2] = system: spinal nerve ligation model of neuropathic pain; conditions: rats; Dogrul et al., Pain (2003); cited from earlier work
[3] = molecular target: T1, human α1G T-type channels (Homo sapiens, UniProt O43497); experiment: T-type calcium channel block, whole cell patch clamp (α1G); format: cell-based; conditions: HEK cells stably expressing human α1G; mainly non-inactivated protocol; values above 10 μM represented as 10 μM, values below 0.30 μM represented as 0.30 μM
T1 construct: expressed in transfected cells; host or cells: HEK 293
T1 sequence (O43497 whole entry): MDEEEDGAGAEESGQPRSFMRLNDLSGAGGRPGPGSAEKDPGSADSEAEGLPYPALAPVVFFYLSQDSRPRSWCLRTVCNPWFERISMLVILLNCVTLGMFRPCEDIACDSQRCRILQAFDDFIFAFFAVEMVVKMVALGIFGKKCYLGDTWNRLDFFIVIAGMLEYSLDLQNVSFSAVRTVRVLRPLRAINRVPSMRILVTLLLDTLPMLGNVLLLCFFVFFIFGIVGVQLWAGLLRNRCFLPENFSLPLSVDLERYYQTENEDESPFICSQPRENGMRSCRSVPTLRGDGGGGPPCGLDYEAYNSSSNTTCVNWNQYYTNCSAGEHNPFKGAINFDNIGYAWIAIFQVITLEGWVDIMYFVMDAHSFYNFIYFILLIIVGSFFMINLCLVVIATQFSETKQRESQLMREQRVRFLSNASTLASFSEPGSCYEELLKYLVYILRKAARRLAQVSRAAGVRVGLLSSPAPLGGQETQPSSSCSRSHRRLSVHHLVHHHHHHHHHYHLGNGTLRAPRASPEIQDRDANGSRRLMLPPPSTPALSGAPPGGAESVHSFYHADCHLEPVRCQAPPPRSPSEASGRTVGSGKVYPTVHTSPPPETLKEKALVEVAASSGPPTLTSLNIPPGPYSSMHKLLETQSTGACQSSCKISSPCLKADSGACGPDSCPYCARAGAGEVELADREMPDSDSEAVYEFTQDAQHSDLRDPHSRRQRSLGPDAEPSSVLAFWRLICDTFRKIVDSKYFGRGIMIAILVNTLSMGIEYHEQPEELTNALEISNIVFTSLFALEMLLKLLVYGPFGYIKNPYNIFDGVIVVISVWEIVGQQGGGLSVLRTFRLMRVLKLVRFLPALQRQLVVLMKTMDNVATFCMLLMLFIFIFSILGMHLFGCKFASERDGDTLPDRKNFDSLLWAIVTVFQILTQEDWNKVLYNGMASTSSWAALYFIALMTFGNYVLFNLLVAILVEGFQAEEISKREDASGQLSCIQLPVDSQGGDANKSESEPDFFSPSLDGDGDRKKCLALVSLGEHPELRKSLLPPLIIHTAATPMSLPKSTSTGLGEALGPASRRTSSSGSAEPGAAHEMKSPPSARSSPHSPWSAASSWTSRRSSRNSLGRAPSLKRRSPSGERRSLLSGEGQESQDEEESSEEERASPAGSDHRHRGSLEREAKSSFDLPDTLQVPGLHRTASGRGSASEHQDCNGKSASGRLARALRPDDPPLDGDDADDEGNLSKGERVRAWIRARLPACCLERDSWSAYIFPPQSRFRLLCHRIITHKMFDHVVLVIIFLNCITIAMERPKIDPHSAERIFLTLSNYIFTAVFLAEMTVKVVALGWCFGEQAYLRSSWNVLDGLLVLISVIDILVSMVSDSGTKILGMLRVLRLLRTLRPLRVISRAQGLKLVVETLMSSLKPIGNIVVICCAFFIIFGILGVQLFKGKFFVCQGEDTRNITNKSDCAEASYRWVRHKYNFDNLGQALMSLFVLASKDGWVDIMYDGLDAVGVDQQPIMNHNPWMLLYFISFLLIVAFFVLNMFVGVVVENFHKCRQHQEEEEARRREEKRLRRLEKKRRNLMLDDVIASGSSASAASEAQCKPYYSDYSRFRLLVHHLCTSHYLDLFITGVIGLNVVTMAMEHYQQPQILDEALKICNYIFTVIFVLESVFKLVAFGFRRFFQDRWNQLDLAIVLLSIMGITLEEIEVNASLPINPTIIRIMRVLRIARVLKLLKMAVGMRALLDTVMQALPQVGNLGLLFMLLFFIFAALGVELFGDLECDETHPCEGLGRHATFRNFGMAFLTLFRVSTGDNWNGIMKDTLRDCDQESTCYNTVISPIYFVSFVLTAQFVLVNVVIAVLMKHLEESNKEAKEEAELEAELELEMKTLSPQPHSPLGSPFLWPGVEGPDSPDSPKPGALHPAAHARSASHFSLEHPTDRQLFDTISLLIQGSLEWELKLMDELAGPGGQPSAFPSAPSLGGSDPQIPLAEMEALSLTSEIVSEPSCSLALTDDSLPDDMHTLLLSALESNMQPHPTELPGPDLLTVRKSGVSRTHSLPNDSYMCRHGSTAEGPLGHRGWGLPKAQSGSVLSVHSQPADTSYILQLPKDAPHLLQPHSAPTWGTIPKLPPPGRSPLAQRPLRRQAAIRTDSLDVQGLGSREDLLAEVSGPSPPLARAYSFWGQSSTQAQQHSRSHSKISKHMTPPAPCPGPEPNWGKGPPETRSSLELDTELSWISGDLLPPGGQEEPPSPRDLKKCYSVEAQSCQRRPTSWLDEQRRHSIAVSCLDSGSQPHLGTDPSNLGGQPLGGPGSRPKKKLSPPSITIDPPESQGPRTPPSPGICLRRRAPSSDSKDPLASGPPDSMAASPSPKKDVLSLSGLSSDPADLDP
How it was run: (§1)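 Whole-cell patch clamp was run on HEK293 cells stably expressing human α1G or α1H. Cells were held at −110 mV and given a 1 s pre-pulse to −100 mV (non-inactivating protocol) before a 50 ms test pulse to −40 mV. Compounds were applied by gravity in external solution with 0.1-0.01% DMSO, and IC50 values are in μM, capped at 10 μM.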

[4] = molecular target: T2, human α1H T-type channels (Homo sapiens, UniProt O95180); experiment: T-type calcium channel block, whole cell patch clamp (α1H); format: cell-based; conditions: HEK cells stably expressing human α1H; mainly non-inactivated protocol; values above 10 μM represented as 10 μM
T2 construct: expressed in transfected cells; host or cells: HEK 293
T2 sequence (O95180 whole entry): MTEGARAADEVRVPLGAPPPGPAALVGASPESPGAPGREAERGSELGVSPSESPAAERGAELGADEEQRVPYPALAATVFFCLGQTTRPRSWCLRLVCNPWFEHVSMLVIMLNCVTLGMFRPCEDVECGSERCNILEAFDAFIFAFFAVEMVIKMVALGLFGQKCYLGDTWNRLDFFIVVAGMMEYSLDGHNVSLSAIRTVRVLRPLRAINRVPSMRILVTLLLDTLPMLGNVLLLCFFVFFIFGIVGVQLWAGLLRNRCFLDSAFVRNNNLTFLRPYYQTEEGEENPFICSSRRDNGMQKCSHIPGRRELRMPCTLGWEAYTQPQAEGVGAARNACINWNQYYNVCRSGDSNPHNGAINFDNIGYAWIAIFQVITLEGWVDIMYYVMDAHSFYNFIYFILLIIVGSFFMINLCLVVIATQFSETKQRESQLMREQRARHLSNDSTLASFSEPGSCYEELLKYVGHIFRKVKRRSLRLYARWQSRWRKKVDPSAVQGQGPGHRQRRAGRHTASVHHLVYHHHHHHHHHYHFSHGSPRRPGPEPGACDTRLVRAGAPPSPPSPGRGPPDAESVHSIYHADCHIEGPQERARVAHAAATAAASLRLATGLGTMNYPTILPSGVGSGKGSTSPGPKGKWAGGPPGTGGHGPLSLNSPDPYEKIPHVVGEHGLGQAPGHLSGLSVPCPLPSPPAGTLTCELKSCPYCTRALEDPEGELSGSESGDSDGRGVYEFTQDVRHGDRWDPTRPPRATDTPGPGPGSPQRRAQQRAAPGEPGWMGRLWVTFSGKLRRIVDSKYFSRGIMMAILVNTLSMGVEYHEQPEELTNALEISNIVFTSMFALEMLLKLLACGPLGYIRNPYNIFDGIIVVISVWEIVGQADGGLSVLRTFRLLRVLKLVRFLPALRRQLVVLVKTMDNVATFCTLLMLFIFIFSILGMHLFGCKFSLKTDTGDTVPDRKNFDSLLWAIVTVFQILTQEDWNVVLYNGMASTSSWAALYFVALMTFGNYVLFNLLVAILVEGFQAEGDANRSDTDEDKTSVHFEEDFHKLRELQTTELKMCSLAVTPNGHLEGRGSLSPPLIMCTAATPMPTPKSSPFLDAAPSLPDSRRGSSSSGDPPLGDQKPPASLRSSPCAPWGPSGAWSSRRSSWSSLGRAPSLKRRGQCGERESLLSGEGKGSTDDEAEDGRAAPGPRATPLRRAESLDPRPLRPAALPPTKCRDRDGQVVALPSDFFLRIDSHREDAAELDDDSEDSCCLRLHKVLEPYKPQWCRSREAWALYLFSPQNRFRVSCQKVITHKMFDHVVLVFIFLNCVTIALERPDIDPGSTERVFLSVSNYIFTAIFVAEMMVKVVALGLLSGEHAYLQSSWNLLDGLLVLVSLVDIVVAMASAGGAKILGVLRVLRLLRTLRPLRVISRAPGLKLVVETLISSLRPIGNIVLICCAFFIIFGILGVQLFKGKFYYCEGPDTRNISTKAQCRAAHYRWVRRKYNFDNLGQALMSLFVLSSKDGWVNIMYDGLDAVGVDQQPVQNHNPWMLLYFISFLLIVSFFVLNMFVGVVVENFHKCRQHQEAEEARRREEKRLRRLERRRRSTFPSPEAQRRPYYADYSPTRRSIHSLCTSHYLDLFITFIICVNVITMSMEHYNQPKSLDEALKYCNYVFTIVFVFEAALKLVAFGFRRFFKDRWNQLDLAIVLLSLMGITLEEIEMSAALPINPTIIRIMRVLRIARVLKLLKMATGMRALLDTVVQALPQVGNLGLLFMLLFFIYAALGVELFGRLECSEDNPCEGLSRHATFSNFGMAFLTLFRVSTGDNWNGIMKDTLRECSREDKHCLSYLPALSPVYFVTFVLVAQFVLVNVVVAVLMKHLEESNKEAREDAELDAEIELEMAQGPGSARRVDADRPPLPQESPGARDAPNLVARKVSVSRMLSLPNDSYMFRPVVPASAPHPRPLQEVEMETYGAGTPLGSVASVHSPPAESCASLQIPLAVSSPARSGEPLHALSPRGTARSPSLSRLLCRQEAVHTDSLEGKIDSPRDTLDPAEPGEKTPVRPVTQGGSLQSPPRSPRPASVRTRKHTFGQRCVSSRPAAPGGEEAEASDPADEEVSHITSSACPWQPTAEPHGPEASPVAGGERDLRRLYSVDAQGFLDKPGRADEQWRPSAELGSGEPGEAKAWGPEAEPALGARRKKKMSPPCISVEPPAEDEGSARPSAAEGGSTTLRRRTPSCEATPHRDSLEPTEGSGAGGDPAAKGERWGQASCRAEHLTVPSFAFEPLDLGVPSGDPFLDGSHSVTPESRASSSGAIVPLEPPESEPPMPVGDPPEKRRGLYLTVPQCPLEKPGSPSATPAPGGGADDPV
How it was run: as §1

| Compound | IC50 [3] [nM] | IC50 [4] [nM] | fold selective for T-type over L-type channels [1] | anti-hyperalgesic activity in the spinal nerve ligation model [2] |
| --- | --- | --- | --- | --- |
| COCC(=O)O[C@]1(CCN(C)CCCc2nc3ccccc3[nH]2)CCc2cc(F)ccc2[C@@H]1C(C)C [Mibefradil] |  |  | 10-30 fold | anti-hyperalgesic activity |
| CCC1(C)CC(=O)NC1=O (stereo not shown) [ethosuximide] |  |  |  | anti-hyperalgesic activity |
| O=C(NC[C@H]1CC[C@H](NCc2cccnc2F)CC1)c1cc(C(F)(F)F)cc(C(F)(F)F)c1 [Compound 27, N-((trans-4-((2-fluoropyridin-3-yl)methylamino)cyclohexyl)methyl)-3,5-bis(trifluoromethyl)benzamide] | 1970 | 9760 |  |  |
| COc1cc(F)cc(C(=O)NC[C@H]2CC[C@@H](NCC(=O)N3CCCC3(C)C)CC2)c1 [Compound 199, N-(((1s,4s)-4-(2-(2,2-dimethylpyrrolidin-1-yl)-2-oxoethylamino)cyclohexyl)methyl)-3-fluoro-5-methoxybenzamide] | 3800 | 350 |  |  |
| CC(C)(C)CC(=O)NCCN[C@H]1CC[C@H](CNC(=O)c2cc(C(F)(F)F)cc(C(F)(F)F)c2)CC1 [Compound 101, N-((trans-4-(2-(3,3-dimethylbutanamido)ethylamino)cyclohexyl)methyl)-3,5-bis(trifluoromethyl)benzamide] | 1510 | 2050 |  |  |

Continued, in another order:

| IC50 [3] [nM] | IC50 [4] [nM] | Compound | fold selective for T-type over L-type channels [1] | anti-hyperalgesic activity in the spinal nerve ligation model [2] |
| --- | --- | --- | --- | --- |
| 1240 | 1330 | Cc1cc(CN[C@H]2CC[C@@H](CNC(=O)c3cc(C(F)(F)F)cc(C(F)(F)F)c3)CC2)no1 [Compound 52, N-((cis-4-((5-methylisoxazol-3-yl)methylamino)cyclohexyl)methyl)-3,5-bis(trifluoromethyl)benzamide] |  |  |
| 1180 | 260 | CC(C)(C)NC(=O)CN[C@H]1CC[C@@H](CNC(=O)c2cc(F)cc(Cl)c2)CC1 [Compound 186, N-(((1s,4s)-4-(2-(tert-butylamino)-2-oxoethylamino)cyclohexyl)methyl)-3-chloro-5-fluorobenzamide] |  |  |
